Experimental data taken from patent US20260347319A1, “YAP/TAZ-TEAD ONCOPROTEINS INHIBITORS” (BridGene Biosciences, Inc., priority 2022, published 2026).

Test system: TEAD1
Assay: MCF-7 TEAD1-luciferase reporter assay (MCF7-TEAD-Luc)
Format: cell-based
Details: MCF7 cells, overnight; for IC50: Homo sapiens; for TEAD1-Luc MCF7: Max Inhibition: % of DMSO-treated control
Procedure: The ability of compounds to inhibit TEAD-dependent transcription was assessed in the MCF7-TEAD-Luc reporter assay (BPS #60618). Cells were seeded at 10,000 cells in 200 μL per well into white wall, clear bottom 96-well plates (Corning #3610) and incubated at 37° C. for 24 hours, then treated with serial diluted compounds overnight, and luciferase signal was measured using the ONE-Step Luciferase Assay System (BPS #60690) using an EnSight Multimode plate reader (PerkinElmer, model #MLDHH34000000, integration time 100 ms) with Kaleido 3.0. software. For data analysis, dose-dependent curves were plotted as “% inhibition” (% of DMSO-treated control wells), and were fitted by four-parametric model in GraphPad Prism to obtain IC50 values.

Structure (SMILES)	IC50	TEAD1-Luc MCF7: Max Inhibition
C=CC(=O)N1CC[C@](O)(/C=C/c2ccc(C(F)(F)F)cc2)C1 (single isomer, unassigned) [Example 27, (S*,E)-1-(3-hydroxy-3-(4-(trifluoromethyl)styryl)pyrrolidin-1-yl)prop-2-en-1-one]	100 to 500 nM	A (A ≥ 75%)
C=CC(=O)N1CC[C@@](O)(/C=C/c2ccc(C(F)(F)F)cc2)C1 (single isomer, unassigned) [Example 28, (R*,E)-1-(3-hydroxy-3-(4-(trifluoromethyl)styryl)pyrrolidin-1-yl)prop-2-en-1-one]	10 to 100 nM	B (75% > B ≥ 50%)
C=CC(=O)N1CC[C@@](C)(/C=C/c2ccc(C(F)(F)F)cc2)C1 (single isomer, unassigned) [Example 29, 1-[(3S*)-3-methyl-3-{2-[4-(trifluoromethyl)phenyl]ethenyl}pyrrolidin-1-yl]prop-2-en-1-one]	10 to 100 nM	A (A ≥ 75%)
C=CC(=O)N1CC[C@](C)(/C=C/c2ccc(C(F)(F)F)cc2)C1 (single isomer, unassigned) [Example 30, 1-[(3R*)-3-methyl-3-{2-[4-(trifluoromethyl)phenyl]ethenyl}pyrrolidin-1-yl]prop-2-en-1-one]	10 to 100 nM	A (A ≥ 75%)
C=CC(=O)N1CC(/C=C/c2ccc(C(F)(F)F)cc2)C(C)(C)C1 (single isomer, unassigned) [Example 33]	100 to 500 nM	A (A ≥ 75%)
C=CC(=O)N1CC[C@@H](/C=C\c2cccc(C(F)(F)F)c2)C1 (single isomer, unassigned) [Example 41, (S*,Z)-1-(3-(3-(trifluoromethyl)styryl)pyrrolidin-1-yl)prop-2-en-1-one]	10 to 100 nM	A (A ≥ 75%)
C=CC(=O)N1CC[C@H](/C=C\c2cccc(C(F)(F)F)c2)C1 (single isomer, unassigned) [Example 42, (R*,Z)-1-(3-(3-(trifluoromethyl)styryl)pyrrolidin-1-yl)prop-2-en-1-one]	100 to 500 nM	A (A ≥ 75%)
C=CC(=O)N1CC[C@H](/C=C/c2cccc(C(F)(F)F)c2)C1 (single isomer, unassigned) [Example 43, (R*,E)-1-(3-(3-(trifluoromethyl)styryl)pyrrolidin-1-yl)prop-2-en-1-one]	100 to 500 nM	B (75% > B ≥ 50%)
C=CC(=O)N1CC[C@@H](/C=C/c2cccc(C(F)(F)F)c2)C1 (single isomer, unassigned) [Example 44, (S*,E)-1-(3-(3-(trifluoromethyl)styryl)pyrrolidin-1-yl)prop-2-en-1-one]	10 to 100 nM	A (A ≥ 75%)
C=CC(=O)N1CC[C@H](C#Cc2cccc(C(F)(F)F)c2)C1 (single isomer, unassigned) [Example 56, (R*)-1-(3-((3-(trifluoromethyl)phenyl)ethynyl)pyrrolidin-1-yl)prop-2-en-1-one]	10 to 100 nM	A (A ≥ 75%)
C=CC(=O)N1CC[C@@H](C#Cc2cccc(C(F)(F)F)c2)C1 (single isomer, unassigned) [Example 57, (S*)-1-(3-((3-(trifluoromethyl)phenyl)ethynyl)pyrrolidin-1-yl)prop-2-en-1-one]	10 to 100 nM	A (A ≥ 75%)
C=CC(=O)N1CC[C@@](C#Cc2ccc(C(F)(F)F)cc2)(OC)C1 (single isomer, unassigned) [Example 58, (S*)-1-(3-methoxy-3-((4-(trifluoromethyl)phenyl)ethynyl)pyrrolidin-1-yl)prop-2-en-1-one]	≤ 10 nM	B (75% > B ≥ 50%)
C=CC(=O)N1CC[C@](F)(C#Cc2ccc(C(F)(F)F)cc2)C1 (single isomer, unassigned) [Example 62, (S*)-1-(3-fluoro-3-((4-(trifluoromethyl)phenyl)ethynyl)pyrrolidin-1-yl)prop-2-en-1-one]	10 to 100 nM	B (75% > B ≥ 50%)
C=CC(=O)N1CC[C@@](F)(C#Cc2ccc(C(F)(F)F)cc2)C1 (single isomer, unassigned) [Example 63, (R*)-1-(3-fluoro-3-((4-(trifluoromethyl)phenyl)ethynyl)pyrrolidin-1-yl)prop-2-en-1-one]	10 to 100 nM	A (A ≥ 75%)
C=CC(=O)N1CC[C@](O)(C#Cc2ccc(C(F)(F)F)cc2)C1 (single isomer, unassigned) [Example 64, (S*)-1-(3-hydroxy-3-((4-(trifluoromethyl)phenyl)ethynyl)pyrrolidin-1-yl)prop-2-en-1-one]	10 to 100 nM	A (A ≥ 75%)
C=CC(=O)N1CC[C@@](O)(C#Cc2ccc(C(F)(F)F)cc2)C1 (single isomer, unassigned) [Example 65, (R*)-1-(3-hydroxy-3-((4-(trifluoromethyl)phenyl)ethynyl)pyrrolidin-1-yl)prop-2-en-1-one]	100 to 500 nM	A (A ≥ 75%)

Further lines, with some results ahead:

IC50	Structure (SMILES)	TEAD1-Luc MCF7: Max Inhibition
10 to 100 nM	C=CC(=O)N1CC[C@H](C#Cc2ccc(C(F)(F)F)cc2)C1 (single isomer, unassigned) [Example 66, (R*)-1-(3-((4-(trifluoromethyl)phenyl)ethynyl)pyrrolidin-1-yl)prop-2-en-1-one]	A (A ≥ 75%)
100 to 500 nM	C=C(F)C(=O)N1CC[C@@H](/C=C/c2ccc(C(F)(F)F)cc2)C1 (single isomer, unassigned) [Example 68]	B (75% > B ≥ 50%)
100 to 500 nM	C=C(F)C(=O)N1CC[C@H](/C=C/c2ccc(C(F)(F)F)cc2)C1 (single isomer, unassigned) [Example 69]	B (75% > B ≥ 50%)
10 to 100 nM	C=CC(=O)N1C[C@H](Nc2ncccn2)[C@@H](/C=C/c2ccc(C(F)(F)F)cc2)C1 (single isomer, unassigned) [Example 84]	A (A ≥ 75%)
≤ 10 nM	C=CC(=O)N1CCC(/C=C/Cc2ccc(C(F)(F)F)cc2)C1 (single isomer, unassigned) [Example 88, (E)-1-(3-(3-(4-(trifluoromethyl)phenyl)prop-1-en-1-yl)pyrrolidin-1-yl)prop-2-en-1-one]	B (75% > B ≥ 50%)
10 to 100 nM	C=CC(=O)N1CCC(/C=C\Cc2ccc(C(F)(F)F)cc2)C1 (single isomer, unassigned) [Example 89, (Z)-1-(3-(3-(4-(trifluoromethyl)phenyl)prop-1-en-1-yl)pyrrolidin-1-yl)prop-2-en-1-one]	A (A ≥ 75%)
> 500 nM	C=CC(=O)N1CCC(/C=C\C(C)(C)c2ccc(C(F)(F)F)cc2)C1 (single isomer, unassigned) [Example 91, (Z)-1-(3-(3-methyl-3-(4-(trifluoromethyl)phenyl)but-1-en-1-yl)pyrrolidin-1-yl)prop-2-en-1-one]	B (75% > B ≥ 50%)
> 500 nM	C=CC(=O)N1CCC(/C=C/C(C)(C)c2ccc(C(F)(F)F)cc2)C1 (single isomer, unassigned) [Example 92, (E)-1-(3-(3-methyl-3-(4-(trifluoromethyl)phenyl)but-1-en-1-yl)pyrrolidin-1-yl)prop-2-en-1-one]	B (75% > B ≥ 50%)
10 to 100 nM	C=CC(=O)N1CC[C@@H](/C=C/Cc2ccc(C(F)(F)F)cc2)C1 (single isomer, unassigned) [Example 93]	B (75% > B ≥ 50%)
10 to 100 nM	C=CC(=O)N1CC[C@H](/C=C/Cc2ccc(C(F)(F)F)cc2)C1 (single isomer, unassigned) [Example 94]	B (75% > B ≥ 50%)
100 to 500 nM	C=CC(=O)N1CCC2(C=C(c3ccc(C(F)(F)F)cc3)CC2)C1 (single isomer, unassigned) [Example 95, 1-(7-(4-(trifluoromethyl)phenyl)-2-azaspiro[4.4]non-6-en-2-yl)prop-2-en-1-one]	B (75% > B ≥ 50%)
10 to 100 nM	C=CC(=O)N1CCC2(CC=C(c3ccc(C(F)(F)F)cc3)C2)C1 (single isomer, unassigned) [Example 96, 1-(7-(4-(trifluoromethyl)phenyl)-2-azaspiro[4.4]non-7-en-2-yl) prop-2-en-1-one]	B (75% > B ≥ 50%)
100 to 500 nM	C=CC(=O)N1CCC2(C=C(c3ccc(C(F)(F)F)cc3)CO2)C1 (single isomer, unassigned) [Example 97, 1-(3-(4-(trifluoromethyl)phenyl)-1-oxa-7-azaspiro[4.4]non-3-en-7-yl)prop-2-en-1-one]	C (50% > C ≥ 2%)
> 500 nM	C=CC(=O)N1CCC2(CC(c3ccc(C(F)(F)F)cc3)=CO2)C1 (single isomer, unassigned) [Example 98, 1-(3-(4-(trifluoromethyl)phenyl)-1-oxa-7-azaspiro[4.4]non-2-en-7-yl)prop-2-en-1-one]	C (50% > C ≥ 2%)
100 to 500 nM	C=CC(=O)N1CC[C@H]([C@@H](O)/C=C/c2ccc(C(F)(F)F)cc2)C1 (single isomer, unassigned) [Example 103]	B (75% > B ≥ 50%)
100 to 500 nM	C=CC(=O)N1CC[C@H]([C@H](O)/C=C/c2ccc(C(F)(F)F)cc2)C1 (single isomer, unassigned) [Example 104]	B (75% > B ≥ 50%)
